Data from US20130072506A1, “6,8-DISUBSTITUTED PURINE COMPOSITIONS” (priority 2011, published 2013).

What was measured:
[1] = tested on: excised wheat leaf tips; test: Senescence inhibition on winter wheat leaf segments (chlorophyll retention); format: in vivo, Triticum aestivum cv. Hereward; settings: for Activity (%): at concentration with highest activity, activity of 10^−4 M kinetin set at 100%; for Concentration with highest activity: retention of chlorophyll in excised wheat leaf tips, 96 hours in the dark
Method: Senescence Inhibition by Novel Compounds Tested on Winter Wheat Leaf Segments. Seeds of winter wheat, Triticum aestivum cv. Hereward, were washed under running water for 24 hours and then sown on vermiculite soaked with Knop's solution. They were placed in the grown chamber at 25° C. with a 16/8 hours light period at […]·m^−2·s^−1. After 7 days, the first leaf was fully developed and the second leaf had started to grow. A tip section of the first leaf, approximately 35 mm long, was removed from 5 seedlings and trimmed slightly to a combined weight of 100 mg. The basal ends of the five leaf tips were placed in the wells of a microtiter polystyrene plate containing […] of a cytokinin solution each. The entire plate was inserted into a plastic box lined with paper tissues soaked in distilled water to prevent leaf sections from drying out. After 96 hours incubation in the dark at 25° C., the leaves were removed and chlorophyll extracted by heating at 80° C. for 10 min in 5 ml of 80% ethanol (v/v). The sample volume was then restored to 5 ml by the addition of 80% ethanol (v/v). The absorbance of the extract was recorded at 665 nm. In addition, chlorophyll extracts from fresh leaves and leaf tips incubated in deionized water were measured. The set up of the assay is shown on FIG. 1. From the obtained data, the concentration with highest activity was selected for each compound tested. Relative activity of the compound at this concentration was calculated (see Table 2 below). […] The values shown are means of five replicates and the whole experiment was repeated twice.
The compounds to be tested were dissolved in dimethylsulfoxide (DMSO) and the solution brought up to 10^−3 M with distilled water.

[2] = tested on: cytokinin-dependent tobacco callus; test: Growth of cytokinin-dependent tobacco callus (plant cell division); format: cell-based, Nicotiana tabacum L. cv. Wisconsin 38; settings: for Activity (%): at concentration with highest activity, activity of kinetin set at 100%
Method: The effect on plant cell division. Cytokinin-dependent tobacco callus Nicotiana tabacum L. cv. Wisconsin 38 was maintained at 25° C. in darkness on modified MS medium, containing 4 μmol/l nicotinic acid, 2.4 μmol/l pyridoxine hydrochloride, 1.2 μmol/l thiamine, 26.6 μmol/l glycine, 1.37 μmol/l glutamine, 1.8 μmol/1 myo-inositol, 30 g/l of sucrose, 8 g/l of agar, 5.37 μmol/l NAA and 0.5 μmol/l BAP. Subcultivation was carried out every three weeks. Fourteen days before the bioassay, the callus tissue was transferred to the media without BAP. Biological activity was determined from the increase in fresh callus weight after four weeks of cultivation. Five replicates were prepared for each cytokinin concentration and the entire test was repeated twice. From the obtained data, the concentration with highest activity was selected for each compound tested. Relative activity at this concentration was calculated (see Table 4 below).
The cytokinins to be tested were dissolved in dimethylsulfoxide (DMSO) and the solution brought up to 10^−3M with distilled water.

[3] = tested on: Human diploid fibroblast BJ; test: In vitro cytotoxic activity (metabolisation of MTT); format: cell-based; settings: 72 hours, BJ passage 18-22
Method: In vitro Cytotoxic Activity (metabolisation of Mtt). MTT ([…]) assay is a standard colorimetric assay for evaluation of cytotoxicity. Mitochondrial dehydrogenase activity converts yellow MTT into violet formazan which is measured by means of spectrometry.
Human diploid fibroblast BJ (passage 18-22) were seeded into 96-well plate (5.000 cells per well). After 6 hours cultivation medium (DMEM with 5 g/l glucose, 2 mM glutamine, 100 U/ml penicillin, 100 mmg/ml streptomycin, 10% fetal calf serum and sodium bicarbonate) was replaced with the cultivation medium containing test compounds in concentration range of 0-200 μM. Highest concentration was adjusted if the solubility of the compound was limiting. Every concentration was tested in pentaplicate. MTT was added to the cells after 72 hours incubation (final concentration 0.5 mg/ml) and incubation continued for another 3 hours. MTT was solubilised by DMSO and absorbance at 570 nm was measured. Growth inhibition (GI) was estimated using the following equitation: GI=(mean A drug exposed wells−mean Ablank/mean Acontrol wells−mean Ablank)×100%. The GI20 value, the drug concentration causing 20% decrease in mitochondrial dehydrogenase activity, was calculated from the obtained dose response curves.

[4] = tested on: Amaranthus caudatus cotyledon/hypocotyl explants; test: Amaranthus bioassay (betacyanin content); format: in vivo, Amaranthus caudatus var. atropurpurea; settings: for Activity (%): at concentration with highest activity, activity of kinetin set at 100%; for Concentration with highest activity: betacyanin content, 48 hours in darkness
Method: Testing of Novel Compounds in Amaranthus bioassay. Standard Amaranthus bioassay was performed with several modifications. The seeds of Amaranthus caudatus var. atropurpurea were surface-sterilized in 10% N-chlorobenzene sulfonamide (w/v) for 10 min and washed 5 times in deionized water. They were placed in 14 cm Petri dishes containing paper tissues saturated with deionized water. After 72 hours of cultivation at 25° C. in darkness, the roots of the seedlings were cut off. The explants, consisting of two cotyledons and hypocotyls, were placed in 5 cm Petri dishes on two layers of filter paper soaked in 1 ml of incubation medium containing 10 μmol Na2HPO4—KH2PO4, pH 6.8, 5 μmol tyrosine and the cytokinin to be tested. There were 20 explants per dish. The procedure was carried out under a green safe light in a darkroom. After a 48 hours of incubation at 25° C. in darkness, betacyanin was extracted by freezing the explants in 4 ml 3.33 μM acetic acid. The concentration of betacyanin was determined by comparing the absorbance at 537 nm and 620 nm as follows: DA=A537nm−A620nm. From the obtained data, the concentration with highest activity was selected for each compound tested. Relative activity of the compound at this concentration was calculated (see Table 3 below). […] The values shown in Table 3 are means of five replicates and the entire test was repeated twice.
The cytokinins to be tested were dissolved in dimethylsulfoxide (DMSO) and the solution brought up to 10^−3 M with distilled water.

[5] = tested on: T-lymphoblastic leukemia cell line CEM; test: In vitro cytotoxic activity (metabolisation of Calcein AM); format: cell-based, human; settings: Homo sapiens, CCRF-CEM, CEM cells, 72 hours incubation, called GI50, read-out: Cell line tested/IC50 (μmol/L) CEM
Source text: (§1) In vitro Cytotoxic Activity (Metabolisation of Calcein AM). Because toxic compounds negatively influence metabolic processes of cells, many standard cytotoxicity assays are based on measurement of metabolisation rate of various artificial substrates. Resulting product is then quantified, for example, by means of spectrometry. The assays can be easily modified for use in 96-well plates. For evaluation of cytotoxicity of the 6,8-disubstituted purines of this invention, a microtiter assay based on quantification of metabolisation of Calcein AM was used. The assay is widely used in drug screening programs and in chemosensitivity testing. In live cells, Calcein AM is enzymatically hydrolysed and accumulation of resulting calcein is manifested by green fluorescence.
(§2) The following human cell lines were used for routine screening of the compounds: normal diploid fibroblasts BJ, T-lymphoblastic leukemia cell line CEM, promyelocytic leukemia cell line HL-60, erytroid leukemia cell line K-562, breast carcinoma cell line MCF-7, osteosarcoma cell line HOS and melanoma cell line G-361. The cells were maintained in Nunc/Corning 80 cm^2 plastic tissue culture flasks and cultured in cell culture medium (DMEM with 5 g/l glucose, 2 mM glutamine, […] penicillin, 100 mmg/ml streptomycin, 10% fetal calf serum and sodium bicarbonate).
(§3) The cell suspensions were prepared and diluted according to the particular cell type and the expected target cell density (2.500-30.000 cells per well based on cell growth characteristics) and pipetted (80 μl) into 96-well plates. Inoculates were allowed a pre-incubation period of 24 hours at 37° C. and 5% CO2 for stabilization. Tested compound was added in total volume of […] of water at time zero. Usually, test compound was evaluated at six 3-fold dilutions. In routine testing, the highest concentration tested was 100 μM, but it could have been adjusted because of limited solubility of a compound. All drug concentrations were tested in triplicates.
(§4) Incubations of cells with the test compounds lasted for 72 hours at 37° C., in 5% CO2 atmosphere and 100% humidity. At the end of incubation period Calcein AM in PBS was added into final concentration of 1 μg/ml. After another 1 hour of incubation fluorescence (FD) was measured with the Labsystem FIA Reader Fluoroscan Ascent (UK). Growth inhibition (GI) was estimated using the following equitation: GI=(mean FDdrug exposed wells−mean FDblank)/(mean FDcontrol wells−mean FDblank)×100%. The GI50 value, the drug concentration causing 50% reduction of Calcein AM conversion, was calculated from the obtained dose response curves.

[6] = tested on: breast carcinoma cell line MCF-7; test: as above; format: cell-based, human; settings: Homo sapiens, MCF7 cells, 72 hours incubation, called GI50, read-out: Cell line tested/IC50 (μmol/L) MCF7
Source text: as §1, §2, §3, §4

[7] = tested on: erytroid leukemia cell line K-562; test: as above; format: cell-based, human; settings: Homo sapiens, K562, K-562 cells, 72 hours incubation, called GI50, read-out: Cell line tested/IC50 (μmol/L) K-562
Source text: as §1, §2, §3, §4

[8] = tested on: melanoma cell line G-361; test: as above; format: cell-based, human; settings: Homo sapiens, G-361 cells, 72 hours incubation, called GI50, read-out: Cell line tested/IC50 (μmol/L) G-361
Source text: as §1, §2, §3, §4

[9] = tested on: normal diploid fibroblasts BJ; test: as above; format: cell-based, human; settings: Homo sapiens, BJ cells, 72 hours incubation, called GI50, read-out: Cell line tested/IC50 (μmol/L) BJ
Source text: as §1, §2, §3, §4

[10] = tested on: osteosarcoma cell line HOS; test: as above; format: cell-based, human; settings: Homo sapiens, HOS cells, 72 hours incubation, called GI50, read-out: Cell line tested/IC50 (μmol/L) HOS
Source text: as §1, §2, §3, §4

| Structure (SMILES) | Activity (%) [1] | Concentration with highest activity [1] | Activity (%) [2] [%] | GI20 [3] [µM] | melting point [°C] | Activity (%) [4] [%] | Concentration with highest activity [4] | IC50 [5] [µmol/L] | IC50 [6] [µmol/L] | IC50 [7] [µmol/L] | IC50 [8] [µmol/L] | IC50 [9] [µmol/L] | IC50 [10] [µmol/L] | Concentration with highest activity ([2]; increase in fresh callus weight after four weeks) |
| --- | --- | --- | --- | --- | --- | --- | --- | --- | --- | --- | --- | --- | --- | --- |
| Clc1nc2ncnc(NCc3ccccc3)c2[nH]1 [Compound 30, 6-Benzylamino-8-chloropurine] | 124.81 (±1) % | 10^−4 mol/l | 157.51 | >100 |  |  |  |  |  |  |  |  |  |  |
| CSc1nc2ncnc(NCc3ccccc3)c2[nH]1 [Compound 148, 6-Benzylamino-8-methylsulphanylpurine] |  |  | 109.36 |  | 234 to 237 |  |  |  |  |  |  |  |  |  |
| CC(C)=CCNc1ncnc2nc(N)[nH]c12 [Compound 87, 6-(3-methylbut-2-en-1-ylamino)-8-aminopurine] |  |  | 150.44 | >100 |  | 171.36 | 10^−4 mol/l | > 50 | > 50 | > 50 | > 50 | > 50 | > 50 |  |
| COC(=O)c1nc2ncnc(NCc3ccccc3)c2[nH]1 [Compound 188] |  |  | 148.91 |  |  | 122.51 | 10^−4 mol/l |  |  |  |  |  |  | 10^−6 mol/l |
| COc1nc2ncnc(NCc3ccco3)c2[nH]1 [Compound 120, 6-Furfurylamino-8-methoxypurine] |  |  |  |  | 196 to 198 |  |  | > 50 | > 50 | > 50 | > 50 | > 50 | > 50 |  |
| NCCCNc1nc2ncnc(NCc3ccccc3)c2[nH]1 [Compound 209, 8-(3-Aminopropylamino)-6-benzylaminopurine] |  |  | 150.01 | >100 | 170 to 173 |  |  | > 50 | > 50 | > 50 | > 50 | > 50 | > 50 |  |
| Oc1nc2ncnc(NCc3ccccc3)c2[nH]1 [Compound 167, 6-Benzylamino-8-hydroxypurine] |  |  |  |  | 243 to 247 |  |  | > 50 | > 50 | > 50 | > 50 | > 50 | > 50 |  |
| NCc1nc2ncnc(NCc3ccccc3)c2[nH]1 [Compound 181, 8-Aminomethyl-6-benzylaminopurine] |  |  |  |  | 187 to 189 |  |  | > 50 | > 50 | > 50 | > 50 | > 50 | > 50 |  |
| Brc1nc2ncnc(NCc3ccccc3)c2[nH]1 [Compound 2, 6-Benzylamino-8-bromopurine] | 144.76 (±6) % | 10^−4 mol/l | 174.83 | >50 |  |  |  | > 50 | > 50 | > 50 | > 50 | > 50 | > 50 |  |
| COc1nc2ncnc(NCc3ccccc3)c2[nH]1 [Compound 121, 6-Benzylamino-8-methoxypurine] |  |  | 129.11 |  |  | 121.15 | 10^−4 mol/l | > 50 | > 50 | > 50 | > 50 | > 50 | > 50 |  |
| Nc1nc2ncnc(NCc3ccccc3)c2[nH]1 [Compound 83, 8-Amino-6-benzylaminopurine] |  |  | 197.08 | >100 | 223 to 226 |  |  | > 50 | > 50 | > 50 | > 50 | > 50 | > 50 |  |
